The target of this assay is USP19 (Homo sapiens (Human), UniProt O94966). In words: USP19 activity assay (fluorescence polarisation, Ubiquitin-Lys-TAMRA substrate). The conditions noted are these: full-length USP19 2.5 nM, 30 min pre-incubation, Ub substrate 500 nM; average of at least two duplicate experiments. Type of assay: biochemical. A general note: Polarisation of emitted light reports the rotation of a fluorescent probe.

Each structure is given as a SMILES string. pIC50: −log10 of the molar value.

Chain of USP19 (O94966 whole entry): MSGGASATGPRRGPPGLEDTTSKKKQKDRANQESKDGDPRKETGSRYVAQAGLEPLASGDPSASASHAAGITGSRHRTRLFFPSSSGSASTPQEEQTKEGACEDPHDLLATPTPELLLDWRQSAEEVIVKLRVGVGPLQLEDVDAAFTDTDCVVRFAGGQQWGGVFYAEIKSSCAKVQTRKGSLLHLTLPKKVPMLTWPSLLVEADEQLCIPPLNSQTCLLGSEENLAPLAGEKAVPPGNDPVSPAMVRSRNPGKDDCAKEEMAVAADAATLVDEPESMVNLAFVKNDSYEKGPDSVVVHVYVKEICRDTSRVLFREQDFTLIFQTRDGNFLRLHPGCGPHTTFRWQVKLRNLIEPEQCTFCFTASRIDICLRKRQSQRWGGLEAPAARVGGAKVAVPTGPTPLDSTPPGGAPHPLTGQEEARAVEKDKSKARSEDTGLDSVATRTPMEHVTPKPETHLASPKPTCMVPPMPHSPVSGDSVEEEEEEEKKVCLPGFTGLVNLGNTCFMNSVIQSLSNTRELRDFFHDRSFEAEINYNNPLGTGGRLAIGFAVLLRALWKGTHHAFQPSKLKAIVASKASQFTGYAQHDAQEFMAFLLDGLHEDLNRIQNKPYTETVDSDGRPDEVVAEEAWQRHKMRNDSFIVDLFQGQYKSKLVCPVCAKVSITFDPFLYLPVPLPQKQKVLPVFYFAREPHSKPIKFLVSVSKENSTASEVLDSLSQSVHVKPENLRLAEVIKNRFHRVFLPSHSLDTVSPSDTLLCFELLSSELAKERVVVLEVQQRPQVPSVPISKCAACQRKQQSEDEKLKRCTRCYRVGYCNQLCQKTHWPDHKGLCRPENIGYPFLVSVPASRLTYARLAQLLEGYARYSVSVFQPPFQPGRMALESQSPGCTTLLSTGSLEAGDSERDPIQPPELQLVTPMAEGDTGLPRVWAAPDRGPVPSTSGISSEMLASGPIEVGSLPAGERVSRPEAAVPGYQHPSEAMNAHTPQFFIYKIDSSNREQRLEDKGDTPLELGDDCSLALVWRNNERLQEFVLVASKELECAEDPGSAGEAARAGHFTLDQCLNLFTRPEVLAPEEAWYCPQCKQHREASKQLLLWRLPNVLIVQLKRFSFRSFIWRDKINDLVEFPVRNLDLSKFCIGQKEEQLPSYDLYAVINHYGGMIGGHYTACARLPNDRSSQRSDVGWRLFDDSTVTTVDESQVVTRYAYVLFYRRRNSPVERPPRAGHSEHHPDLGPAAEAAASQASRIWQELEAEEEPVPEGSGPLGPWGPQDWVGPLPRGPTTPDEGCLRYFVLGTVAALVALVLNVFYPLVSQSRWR

Usually pIC50 stands for the IC50 on a negative log10 scale, so that one unit is a factor of ten. As for `CN(C)C(=O)c1cn(CC2(O)CCN(C(=O)C3CC3)CC23CCCC3)c(=O)cc1-c1ccccc1` (centres unmarked) [Example 175, 1-((7-(Cyclopropanecarbonyl)-10-hydroxy-7-azaspiro[4.5]decan-10-yl)methyl)-N,N-dimethyl-6-oxo-4-phenyl-1,6-dihydropyridine-3-carboxamide], the pIC50 was 3.60 to 4.30.

Turning to `C[C@H](CC(=O)N1CCC(O)(Cn2cc(C(=O)N3CCOCC3)c(-c3ccccc3)cc2=O)CC1)c1ccccc1` [Example 77, (R)-1-((4-Hydroxy-1-(3-phenylbutanoyl)piperidin-4-yl)methyl)-5-(morpholine-4-carbonyl)-4-phenylpyridin-2(1H)-one], the pIC50 is 5.30 to 6.30. The value for `C[C@H](CC1CCC1)C(=O)N1CC[C@@](O)(Cn2cc(C(=O)N3CCNCC3)c(-c3ccccc3F)cc2=O)C(C)(C)C1` [Example 236, 1-(((S)-1-((R)-3-Cyclobutyl-2-methylpropanoyl)-4-hydroxy-3,3-dimethylpiperidin-4-yl)methyl)-4-(2-fluorophenyl)-5-(piperazine-1-carbonyl)pyridin-2(1H)-one] was above 6.30; that for `CC(CC(=O)N1CCC(O)(Cn2cnc(-c3ccccc3F)cc2=O)C(C)(C)C1)C1CCCCC1` (centres unmarked) [Example 76, 3-((1-(3-Cyclohexylbutanoyl)-4-hydroxy-3,3-dimethylpiperidin-4-yl)methyl)-6-(2-fluorophenyl)pyrimidin-4(3H)-one] was 5.30 to 6.30. In the case of `CC(CC(F)(F)F)C(=O)N1CCC(O)(Cn2cnc(-c3ccccc3F)cc2=O)C(C)(C)C1` (centres unmarked) [Example 143, 6-(2-Fluorophenyl)-3-((4-hydroxy-3,3-dimethyl-1-(4,4,4-trifluoro-2-methylbutanoyl)piperidin-4-yl)methyl)pyrimidin-4(3H)-one] it was 4.30 to 5.30; in that of `CN(C)C(=O)c1cn(CC2(O)CCN(C(=O)[C@H](COCc3ccccc3)CC3CCCCC3)CC2(C)C)c(=O)cc1-c1ccccc1` (stereo partly drawn) [Example 146, 1-((1-((S)-3-(Benzyloxy)-2-(cyclohexylmethyl)propanoyl)-4-hydroxy-3,3-dimethylpiperidin-4-yl)methyl)-N,N-dimethyl-6-oxo-4-phenyl-1,6-dihydropyridine-3-carboxamide], 5.30 to 6.30; in that of `C[C@H](CC(=O)N1CCC(O)(Cn2cc(-c3ccco3)c(-c3ccccc3)cc2=O)CC1)c1ccccc1` [Example 8, (R)-5-(Furan-2-yl)-1-((4-hydroxy-1-(3-phenylbutanoyl)piperidin-4-yl)methyl)-4-phenylpyridin-2(1H)-one], 4.30 to 5.30. For the molecule `C[C@H](CC1CCCCC1)C(=O)N1C[C@H]2CC[C@@H](C1)C2(O)Cn1cnc(-c2ccccc2F)cc1=O` (stereo partly drawn) [Example 31, 3-(((1R,5S)-3-((R)-3-Cyclohexyl-2-methylpropanoyl)-8-hydroxy-3-azabicyclo[3.2.1]octan-8-yl)methyl)-6-(2-fluorophenyl)pyrimidin-4(3H)-one], the pIC50 was 5.30 to 6.30. The value for `C[C@H](CC1CCCCC1)C(=O)N1CCC(O)(Cn2cnc(-c3ccccc3CO)cc2=O)C(C)(C)C1` (stereo partly drawn) [Example 137, 3-((1-((R)-3-Cyclohexyl-2-methylpropanoyl)-4-hydroxy-3,3-dimethylpiperidin-4-yl)methyl)-6-(2-(hydroxymethyl)phenyl)pyrimidin-4(3H)-one] was 5.30 to 6.30; that for `CCC(CC1CCCCC1)C(=O)N1CCC(O)(Cn2cnc(-c3ccccc3F)cc2=O)C(C)(C)C1` (centres unmarked) [Example 118, 3-((1-(2-(Cyclohexylmethyl)butanoyl)-4-hydroxy-3,3-dimethylpiperidin-4-yl)methyl)-6-(2-fluorophenyl)pyrimidin-4(3H)-one] was 5.30 to 6.30.

As to `C[C@H](CC(=O)N1CCC(O)(Cn2cc(-c3cccnc3)c(-c3ccccc3)cc2=O)CC1)c1ccccc1` [Example 99, (R)-1-((4-Hydroxy-1-(3-phenylbutanoyl)piperidin-4-yl)methyl)-4-phenyl-[3,3′-bipyridin]-6(1H)-one], the pIC50 was 4.30 to 5.30.

These data come from patent US11053213B2, “Pharmaceutical compounds” (ALMAC DISCOVERY LIMITED, priority 2016, dated 2021).
